Results reported in patent US12371404B2, “Fused bicyclic alkylene linked imidodicarbonimidic diamides, methods for synthesis, and uses in therapy” (NovaTarg, Inc., priority 2016, dated 2025).
Counter-ions that a name gives are not always drawn. Like-named read-outs stand apart in the source and are kept apart here.

Columns and labels:
[1] = target: T1, human OCT2 (Homo sapiens, UniProt O15244); assay: Oxygen consumption rate (OCR) assay, HEK293 cells transfected with OCT2; details: HEK293 cells stably transfected with human OCT2; MitoXpress Xtra, 2 hours
T1 sequence (O15244 1-555): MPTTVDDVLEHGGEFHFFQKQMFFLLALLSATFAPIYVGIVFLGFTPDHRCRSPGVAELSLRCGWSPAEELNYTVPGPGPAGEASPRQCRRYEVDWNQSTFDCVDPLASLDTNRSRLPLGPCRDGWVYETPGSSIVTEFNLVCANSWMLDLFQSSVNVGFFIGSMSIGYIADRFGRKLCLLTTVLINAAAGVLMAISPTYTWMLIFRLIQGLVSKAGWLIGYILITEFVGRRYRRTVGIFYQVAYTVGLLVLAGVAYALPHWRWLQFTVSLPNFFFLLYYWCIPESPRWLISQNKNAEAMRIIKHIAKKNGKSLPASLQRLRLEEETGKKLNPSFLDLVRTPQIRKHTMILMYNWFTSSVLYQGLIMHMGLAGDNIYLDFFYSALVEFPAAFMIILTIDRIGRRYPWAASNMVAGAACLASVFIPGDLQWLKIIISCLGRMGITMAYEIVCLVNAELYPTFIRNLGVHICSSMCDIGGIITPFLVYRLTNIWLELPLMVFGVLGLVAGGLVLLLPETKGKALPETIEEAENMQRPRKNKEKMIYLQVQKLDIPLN
From the text: (§1) Diabetologia 2011, 54 (12): 3101-3110, each incorporated by reference with regard to such testing. The compounds of the present invention are similarly tested in an oxygen consumption rate (OCR) assay to evaluate the functional activity of test compounds in cells.
(§2) In brief, the assay uses HEK293 cells stably transfected with the human OCT1, OCT2, OCT3, PMAT, or MATE1 transporters to determine a compound's relative transporter selectivity and its effect on the rate of oxygen consumption relative to control (Neo) cells. The MitoXpress Xtra oxygen-sensitive fluorophore is used to monitor oxygen consumption rates in the presence and absence of compound treatments. The analogs were tested at eight (8) different concentrations in triplicate to determine a relative IC50 value.
(§3) A summary description of the protocol is as follows:
HEK293 cells transformed with human organic cation transporters were plated in collagen coated, 96-well black-walled microclear plates (Greiner-Bio 1, #655956) at 60,000 cells per well in growth medium (DMEM (LG), 10% FBS, 400 μg/ml G418). Cells were incubated overnight to allow attachment. The outer columns (1 and 12) are not seeded with cells, as controls. The next day, plating medium was removed and replaced with 150 μL of assay medium (DMEM/F12 (PRF), 5% FBS, antibiotics) containing compound dilutions. A 3-fold serial dilution was prepared in the assay medium and transferred to the empty wells. The outer columns and column 11 received 150 μL of assay medium only. […] Dual read time-resolved fluorescence (BMG FluoStar Galaxy reader) was measured over 2 hours with measurements taken every 2 minutes. […] Background TRF values from A1-D1 were subtracted from all readings. A ratiometric analysis was performed to determine changes in the Lifetime fluorescence signal:Lifetime (μs) [T]=(D2−D1)/ln(W1/W2), where D is delay; W is fluorescence window value at each time point. Lifetime slopes were calculated using each Lifetime measurement over time. IC50 values were determined by plotting lifetime slope values vs. compound concentration.

[2] = target: T2, human MATE1 (Homo sapiens, UniProt Q96FL8); assay: Oxygen consumption rate (OCR) assay, HEK293 cells transfected with MATE1
T2 sequence (Q96FL8 1-570): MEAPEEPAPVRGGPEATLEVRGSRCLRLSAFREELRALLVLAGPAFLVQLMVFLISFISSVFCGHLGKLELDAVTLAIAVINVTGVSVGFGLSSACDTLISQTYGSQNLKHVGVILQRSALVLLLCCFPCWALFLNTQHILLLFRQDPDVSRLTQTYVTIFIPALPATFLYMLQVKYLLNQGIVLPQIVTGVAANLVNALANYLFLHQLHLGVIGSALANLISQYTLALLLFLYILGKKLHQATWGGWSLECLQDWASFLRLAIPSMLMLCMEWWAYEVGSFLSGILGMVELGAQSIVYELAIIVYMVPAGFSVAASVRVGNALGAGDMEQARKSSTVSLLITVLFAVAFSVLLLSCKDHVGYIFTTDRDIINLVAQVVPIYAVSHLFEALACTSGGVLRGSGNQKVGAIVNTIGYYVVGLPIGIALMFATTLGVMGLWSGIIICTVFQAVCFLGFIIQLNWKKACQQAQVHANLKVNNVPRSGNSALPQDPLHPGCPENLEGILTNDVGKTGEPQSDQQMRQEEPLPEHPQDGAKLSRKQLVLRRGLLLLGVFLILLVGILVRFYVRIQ

[3] = test system: control (Neo) cells; assay: Oxygen consumption rate (OCR) assay, control (Neo) HEK293 cells; assay type: cell-based; details: Homo sapiens, read-out: Oxygen Consumption Rate (OCR) IC50, Neo
[4] = target: T3, human PMAT (Homo sapiens, UniProt Q7RTT9); assay: Oxygen consumption rate (OCR) assay, HEK293 cells transfected with PMAT; assay type: cell-based
T3 construct: expressed in transfected cells; host or cells: HEK293
T3 sequence (Q7RTT9 1-530): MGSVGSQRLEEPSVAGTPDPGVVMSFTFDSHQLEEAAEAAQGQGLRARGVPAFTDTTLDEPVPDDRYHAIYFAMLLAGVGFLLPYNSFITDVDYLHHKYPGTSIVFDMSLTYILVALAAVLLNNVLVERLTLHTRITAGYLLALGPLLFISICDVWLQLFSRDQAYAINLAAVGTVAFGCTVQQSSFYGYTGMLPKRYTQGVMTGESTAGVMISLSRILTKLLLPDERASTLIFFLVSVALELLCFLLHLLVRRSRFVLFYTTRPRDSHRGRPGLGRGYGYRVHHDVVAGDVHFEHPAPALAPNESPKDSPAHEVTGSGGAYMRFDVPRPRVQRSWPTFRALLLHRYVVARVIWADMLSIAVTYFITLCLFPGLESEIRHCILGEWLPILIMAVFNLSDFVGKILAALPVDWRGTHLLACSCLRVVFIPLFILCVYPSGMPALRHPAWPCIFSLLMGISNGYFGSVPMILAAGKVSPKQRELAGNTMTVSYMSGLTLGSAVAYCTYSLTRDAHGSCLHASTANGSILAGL
From the text: as §1, §2, §3
HEK293 cells transformed with human organic cation transporters were plated in collagen coated, 96-well black-walled microclear plates (Greiner-Bio 1, #655956) at 60,000 cells per well in growth medium (DMEM (LG), 10% FBS, 400 μg/ml G418). Cells were incubated overnight to allow attachment. The outer columns (1 and 12) are not seeded with cells, as controls. The next day, plating medium was removed and replaced with 150 μL of assay medium (DMEM/F12 (PRF), 5% FBS, antibiotics) containing compound dilutions. A 3-fold serial dilution was prepared in the assay medium and transferred to the empty wells. The outer columns and column 11 received 150 μL of assay medium only. 10 μL of MitoXpress Xtra reagent was added to each test well, and 100 μL of pre-warmed mineral oil was overlayed in each well to create a seal. Dual read time-resolved fluorescence (BMG FluoStar Galaxy reader) was measured over 2 hours with measurements taken every 2 minutes. Excitation is 340 nm, Emission is 650 nm. For lifetime analysis, two measurements per well were taken: 1) delay of 30 μs, with a window of 30 μs; and 2) delay of 70 μs with a window of 30 μs. Background TRF values from A1-D1 were subtracted from all readings. A ratiometric analysis was performed to determine changes in the Lifetime fluorescence signal:Lifetime (μs) [T]=(D2−D1)/ln(W1/W2), where D is delay; W is fluorescence window value at each time point. Lifetime slopes were calculated using each Lifetime measurement over time. IC50 values were determined by plotting lifetime slope values vs. compound concentration.

[5] = diabetic cancer patients taking metformin during neoadjuvant chemotherapy; versus 8% not receiving metformin, P=0.007; cited from earlier work
[6] = T2D patients treated with metformin, retrospective studies; cited from earlier work
[7] = diabetic patients receiving metformin; cited from earlier work
[8] = NASH, dose up to 1 g twice daily (BID); cited from earlier work

SMILES	Oxygen Consumption Rate (OCR) IC50, OCT 2 [1] [µM]	IC50 [2] [µM]	IC50 ([3]; HEK293, 2 h) [µM]	IC50 [4] [µM]	pathological complete response rate [5] [%]	reduced cancer burden than patients on other treatments [6] [%]	decrease in breast cancer compared with those on other therapies [7] [%]	patients with improvement in liver pathology and ALT [8] [%]	IC50 ([3]; control (Neo) HEK293 cells, MitoXpress Xtra, 2 hours) [µM]	IC50 ([4]; HEK293 cells stably transfected with human PMAT, MitoXpress Xtra, 2 hours, read-out: Oxygen Consumption Rate (OCR) IC50, PMAT) [µM]
N=C(N)NC(=N)NCCc1c[nH]c2c(F)cccc12 [Ex 3, 1-[2-(7-fluoro-1H-indol-3-yl)ethyl]imidodicarbonimide diamide]	7	20	677	4	–	–	–	–	–	–
N=C(N)NC(=N)NCCc1c[nH]c2cc(F)ccc12 [Ex 11, 1-[2-(6-fluoro-1H-indol-3-yl)ethyl]imidodicarbonimide Diamide Trifluoroacetic Acid Salt]	12	57	214	3	–	–	–	–	–	–
N=C(N)NC(=N)NCCc1c[nH]c2cccc(F)c12 [Ex 26, 1-[2-(4-fluoro-1H-indol-3-yl)ethyl]imidodicarbonimide diamide, trifluoroacetic acid salt]	2	–	90	2	–	–	–	–	–	–
CN(C)C(=N)NC(=N)N [Metformin]	–	–	–	–	24	~40	56	30	> 3000	288
